In patent US20060257388A1, “Drug delivery systems for stabilized formulations of alpha adrenergic receptor antagonists and the uses thereof” (priority 2005, published 2006):
Structures can show the parent of a compound that is named as a salt.

How the values were obtained:
[1] = Narrow-range pH-stability profiling at 60° C. (HPLC); type: physicochemical; conditions: 50 mM sodium phosphate, FIG. 2
Experimental: (§1) The drug is monitored at a detection wavelength of 232 nm.
All samples were stored in the dark. […] All samples were analyzed without dilution.
The phosphate buffers were prepared as previously described. The samples were analyzed by HPLC for phentolamine concentration and purity at an initial time point and after 2, 7 and 14 days of storage at 60° C. Measurement of sample pH was done after HPLC analysis.
In order to precisely define the most favorable pH, a stronger stressing condition was needed to generate a greater extent of degradation in the lower pH region. For this study, the incubation condition was shifted from 40° C. to 60° C. Since the extent of degradation after fourteen (14) days was still less than twenty percent (20%) in most samples, zero-order rate kinetics was used for the degradation curves (concentration versus time). The calculated rate constant was plotted against pH to provide the narrow-range pH-stability profile.

[2] = Effect of buffer concentration on stability, sodium acetate pH 3.5, 60° C. (HPLC, pH); type: physicochemical
Experimental: as §1
Tightly sealed glass vials containing the test solutions were placed in an oven at 40° C. or 60° C. All samples were stored in the dark. Aliquots were removed at designated time points for HPLC analysis and pH measurement. All samples were analyzed without dilution.
In conjunction with HPLC analysis, pH was measured. The measurement was performed using the same samples as used for the HPLC analysis. The pH meter was calibrated using pH 4.00 and 7.00 buffer standards prior to each measurement.
Samples were incubated at 60° C. with scheduled testing performed at day 0, 2, 7, and 14. The various buffer concentrations were prepared by diluting the 50 mM buffer with water and re-examining the pH value to determine if the pH 3.5 was constant. Measurements of pH were performed after HPLC analysis of the samples.

[3] = Effect of additives on stability, 60° C. (HPLC); type: physicochemical; conditions: for Phentolamine Concentration: 10 mM Sodium Acetate, pH 3.5, 60° C.
From the text: as §1
The additives in this study are selected from five groups of injectable excipients namely, tonicity modifiers (NaCl and d-mannitol), metal chelators (EDTA), antioxidants (sodium metabisulfite), complexing agents α-cyclodextrin and niacinamide) and solvents (glycerol and polypropylene glycol). A tonicity modifier is required for adjusting the phentolamine mesylate solution to isotonic. […] Complexing agents were applied in the hope that a possible formation of an inclusion complex (by α-cyclodextrin) or stacking complex (by niacinamide) with phentolamine would modify the rate of hydrolytic degradation of the drug substance. Solvents were added to reduce the dielectric constant of the vehicle and were intended to slow the rate of degradation due to solvent polarity.
The pH value of the solutions was readjusted to pH 3.5, as required. The 25% glycerol (25 g in 100 ml total volume with water) and 25% polypropylene glycol (25 g in 100 ml total volume with water) solutions had their buffer strength adjusted by addition of acetic acid followed by addition of 2 N NaOH for pH adjustment to pH 3.5 followed by addition of the drug to 0.1 mg/ml.
All samples were placed in 10 ml glass serum vials, stoppered with rubber closures with an inert coating (Dalkyo Flurotec by WEST Pharmaceutical), and sealed with flip-top caps after sampling. Vials were placed at 60° C. after the weights were recorded.
Sampling occurred at the initial time point and on days 2, 7, and 14. Vials were weighed, sampled, sealed, re-weighed, and replaced under the selected storage condition until testing at the subsequent time point. Records indicate no significant weight loss during storage.

healthy adult volunteers = experiment: Reversal of soft-tissue anesthesia after inferior alveolar nerve block, proof-of-principle trial (Example 3); type: in vivo, human; conditions: 0.2 mg in 1.8 ml
Experimental: The objective of this proof-of-principle trial was to evaluate the feasibility of reversing soft-tissue anesthesia by pharmacologically blocking the effects of epinephrine. […] Subjects self-evaluated the return of normal sensation in their lip, chin, tongue, nose, and teeth by palpations at 5-minute intervals starting at 5 minutes before the study drug injection and continuing for approximately 4-5 hours. To avoid biased responding, subjects were told that they could not leave the clinic for 8 hours after the last injection. Responses for soft tissues were categorized as (1) numb (no feeling), (2) feeling of pins and needles, or (3) normal sensation. Responses for teeth were (1) numb (no feeling) or (2) normal sensation. Safety was evaluated through reports of adverse events, measurement of vital signs and two-lead electrocardiograms before, during, and after the injections of anesthetic and study drug, and through pain assessments using visual analog scales.

[4] = tested on: healthy adult volunteer subjects; experiment: Dose range study, reversal of local anesthesia after mandibular nerve block (Example 4); type: in vivo, human
From the text: The objectives of this study were to evaluate the safety and efficacy of a range of doses of phentolamine in reversing local anesthesia after a mandibular nerve block. […] Subjects palpated their lower lip, chin, tongue, and teeth every five minutes for the next five hours after injections.

[5] = tested on: healthy adult volunteer subjects; experiment: Dose range study, reversal of local anesthesia after maxillary infiltration (Example 5); type: in vivo, human
Experimental: The objectives of this study were to evaluate the safety and efficacy of a range of doses of phentolamine in reversing local anesthesia after a maxillary infiltration. Four groups of eight healthy adult volunteer subjects were given an infiltration of the lateral incisor using one 1.8 ml cartridge of lidocaine 2% with epinephrine 1:100,000. […] Subjects palpated their upper lip, nose, and teeth every five minutes for the next five hours after injections.

patients [6] = conditions: 0.5-1.5 mg, patients pretreated with lignocaine admixed with epinephrine; cited from earlier work
patients [7] = conditions: systemic doses, package insert; cited from earlier work
human = conditions: solution containing 0.05 mg/ml; cited from earlier work
[8] = 0.02 mg, 0.06 mg, 0.4 mg in 1.8 ml
[9] = 0.02 mg, 0.08 mg, 0.4 mg in 1.8 ml

Cc1ccc(N(CC2=NCCN2)c2cccc(O)c2)cc1 [Phentolamine Mesylate]
pH at which phentolamine was most stable [1]: 3.5 | Phentolamine Concentration ([2]; 50 mM Sodium Acetate pH 3.5, 60° C., Day 2): 101 µg/mL | rate of degradation versus un-buffered control (in words) ([2]; 5, 10 and 50 mM sodium acetate): comparable and was an improvement over the un-buffered control | Phentolamine Concentration ([3]; Additive Glycerol, 25% w/v, Day 0): 126 µg/mL | Phentolamine Concentration ([3]; Additive Glycerol, 25% w/v, Day 2): 123 µg/mL | Phentolamine Concentration ([3]; Additive Glycerol, 25% w/v, Day 14): 115 µg/mL | Phentolamine Concentration ([3]; Additive Polypropylene glycol, 25% w/v, Day 0): 118 µg/mL | Phentolamine Concentration ([3]; Additive Polypropylene glycol, 25% w/v, Day 2): 121 µg/mL | Phentolamine Concentration ([3]; Additive Polypropylene glycol, 25% w/v, Day 7): 113 µg/mL | Phentolamine Concentration ([3]; Additive Sodium metabisulfite, 0.5 mg/ml, Day 2): 101 µg/mL | Phentolamine Concentration ([3]; Additive α-Cyclodextrin, 50 mg/ml, Day 0): 102 µg/mL | impact of additives on stability (in words) ([3]; d-Mannitol and disodium EDTA): improve stability based on the rate constant or to exhibit no negative impact based on purity values | adverse effects (healthy adult volunteers): Adverse effects were few and no differences were noted between the active and placebo groups | electrocardiogram (healthy adult volunteers): no abnormalities in the electrocardiogram | duration of anesthesia versus saline (in words) (healthy adult volunteers; 60 minutes after inferior alveolar nerve block with 2% lidocaine, 1:100,000 epinephrine, lip, chin, tongue, nose, teeth): significantly (p<0.01) reduced the duration of anesthesia in each tissue | adverse events [4, 8]: Adverse events were few and no differences were noted between the active and placebo groups | electrocardiogram [4, 8]: no abnormalities in the electrocardiogram | duration of anesthesia versus saline placebo (in words) ([4]; all doses tested (0.02 mg, 0.06 mg, 0.4 mg in 1.8 ml), 60 minutes after inferior alveolar nerve block, lower lip, chin, tongue, teeth): significantly (p<0.05) reduced the duration of anesthesia in each measured tissue | adverse events [5, 9]: Adverse events were few and no differences were noted between the active and placebo groups | electrocardiogram [5, 9]: no abnormalities in the electrocardiogram | duration of anesthesia versus saline placebo (in words) ([5]; all doses tested (0.02 mg, 0.08 mg, 0.4 mg in 1.8 ml), 40 minutes after lateral incisor infiltration, upper lip, nose, teeth): significantly (p<0.01) reduced the duration of anesthesia in each measured tissue | duration of anesthesia (in words) (patients [6]): reduction in the duration of anesthesia with increasing amounts | side effect warning (patients [7]): Myocardial infarction, cerebrovascular spasm, and cerebrovascular occlusion have been reported | reversal of local anesthetic effect (in words) (human): rapidly reverse the effect of a local anesthetic
